Laboratory results as given in ChEMBL document CHEMBL1201862, “PubChem BioAssay data set” (2004).
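Protocol summary: plate cells (96-well), add compound at 5 concentrations, incubate 48 h, interpolate endpoints linearly. GI50 = concentration required for 50% inhibition of growth.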 Activity calls are given as the source filed them. No stated cut-off is given here; in the data, active = GI50 up to about 1.1 µM and inactive = higher.

What was measured:
Experiment in all cases: NCI-60 cell line screen, 48 h
[1] = test system: HOP-62
[2] = test system: A549
[3] = test system: OVCAR-8
[4] = test system: ACHN
[5] = test system: SK-MEL-5
[6] = test system: OVCAR-3
[7] = test system: OVCAR-4
[8] = test system: MOLT-4
[9] = test system: SF-268
[10] = test system: DMS-114
[11] = test system: A498
[12] = test system: NCI-H460
[13] = test system: SF-295
[14] = test system: IGROV-1
[15] = test system: KM12
[16] = test system: 786-0
[17] = test system: EKVX
[18] = test system: RXF 393
[19] = test system: HCT-15
[20] = test system: LXFL 529
[21] = test system: COLO 205
[22] = test system: HOP-92
[23] = test system: SF-539
[24] = test system: SK-MEL-2
[25] = test system: SW-620
[26] = test system: M19-MEL
[27] = test system: SN12C
[28] = test system: HCT-116
[29] = test system: UACC-62
[30] = test system: SNB-78
[31] = test system: KM-20L2
[32] = test system: DMS-273
[33] = test system: SNB-19
[34] = test system: HCC 2998
[35] = test system: NCI-H522
[36] = test system: SNB-75
[37] = test system: DLD-1
[38] = test system: SK-MEL-28
[39] = test system: HT-29
[40] = test system: HL-60
[41] = test system: NCI-H23
[42] = test system: M14
[43] = test system: RPMI-8226
[44] = test system: UO-31
[45] = test system: TK-10
[46] = test system: OVCAR-5
[47] = test system: LOX IMVI
[48] = test system: CCRF-CEM
[49] = test system: U-251
[50] = test system: NCI-H226
[51] = test system: SK-OV-3
[52] = test system: K562
[53] = test system: XF498
[54] = test system: UACC-257
[55] = test system: SR
[56] = test system: CAKI-1
[57] = test system: Malme-3M

C=C(CO)CC(/C=C(\C)CC/C=C(\C)CCl)OC(C)=O (stereo not given)
GI50 [1]: > 100 µM (inactive) | GI50 [2]: > 100 µM (inactive) | GI50 [3]: > 100 µM (inactive) | GI50 [4]: > 100 µM (inactive) | GI50 [5]: > 100 µM (inactive) | GI50 [6]: > 100 µM (inactive) | GI50 [7]: > 100 µM (inactive) | GI50 [8]: > 100 µM (inactive) | GI50 [9]: > 100 µM (inactive) | GI50 [10]: > 100 µM (inactive) | GI50 [11]: > 100 µM (inactive) | GI50 [12]: > 100 µM (inactive) | GI50 [13]: > 100 µM (inactive) | GI50 [14]: > 100 µM (inactive) | GI50 [15]: > 100 µM (inactive) | GI50 [16]: > 100 µM (inactive) | GI50 [17]: > 100 µM (inactive) | GI50 [18]: > 100 µM (inactive) | GI50 [19]: > 100 µM | GI50 [20]: > 100 µM (inactive) | GI50 [21]: > 100 µM (inactive) | GI50 [22]: 5.7 µM (inactive) | GI50 [23]: > 100 µM (inactive) | GI50 [24]: > 100 µM (inactive) | GI50 [25]: > 100 µM (inactive) | GI50 [26]: > 100 µM (inactive) | GI50 [27]: > 100 µM (inactive) | GI50 [28]: > 100 µM (inactive) | GI50 [29]: > 100 µM (inactive) | GI50 [30]: > 100 µM (inactive) | GI50 [31]: > 100 µM (inactive) | GI50 [32]: > 100 µM (inactive) | GI50 [33]: > 100 µM (inactive) | GI50 [34]: > 100 µM (inactive) | GI50 [35]: > 100 µM (inactive) | GI50 [36]: > 100 µM (inactive) | GI50 [37]: > 100 µM (inactive) | GI50 [38]: > 100 µM (inactive) | GI50 [39]: > 100 µM (inactive) | GI50 [40]: > 100 µM (inactive) | GI50 [41]: > 100 µM (inactive) | GI50 [42]: > 100 µM (inactive) | GI50 [43]: > 100 µM (inactive) | GI50 [44]: > 100 µM (inactive) | GI50 [45]: > 100 µM (inactive) | GI50 [46]: > 100 µM (inactive) | GI50 [47]: > 100 µM (inactive) | GI50 [48]: > 100 µM (inactive) | GI50 [49]: > 100 µM (inactive) | GI50 [50]: > 100 µM (inactive) | GI50 [51]: > 100 µM (inactive) | GI50 [52]: > 100 µM (inactive) | GI50 [53]: > 100 µM (inactive)

CCCCCCCCCCCCCCCCNCCCN(C)CCCN
GI50 [2]: 16.7 µM (inactive) | GI50 [3]: 20.7 µM (inactive) | GI50 [4]: 19.4 µM (inactive) | GI50 [5]: 16 µM (inactive) | GI50 [6]: 19.5 µM (inactive) | GI50 [7]: 18.8 µM (inactive) | GI50 [8]: 28.8 µM (inactive) | GI50 [9]: 18.7 µM (inactive) | GI50 [54]: 22 µM (inactive) | GI50 [10]: 16.6 µM (inactive) | GI50 [11]: 18.2 µM (inactive) | GI50 [12]: 17.7 µM (inactive) | GI50 [13]: 17.9 µM (inactive) | GI50 [14]: 20.3 µM (inactive) | GI50 [15]: 18.4 µM (inactive) | GI50 [16]: 15.2 µM (inactive) | GI50 [17]: 20.5 µM (inactive) | GI50 [55]: 21 µM (inactive) | GI50 [19]: 17.2 µM | GI50 [20]: 18.6 µM (inactive) | GI50 [21]: 22.1 µM (inactive) | GI50 [23]: 17.8 µM (inactive) | GI50 [24]: 20.8 µM (inactive) | GI50 [25]: 18.5 µM (inactive) | GI50 [26]: 19.9 µM (inactive) | GI50 [27]: 20 µM (inactive) | GI50 [28]: 18.7 µM (inactive) | GI50 [29]: 17.3 µM (inactive) | GI50 [30]: 16.9 µM (inactive) | GI50 [31]: 18.2 µM (inactive) | GI50 [32]: 17.8 µM (inactive) | GI50 [33]: 17.1 µM (inactive) | GI50 [34]: 18.3 µM (inactive) | GI50 [35]: 17.3 µM (inactive) | GI50 [36]: 18.2 µM (inactive) | GI50 [37]: 16.8 µM (inactive) | GI50 [38]: 13.4 µM (inactive) | GI50 [39]: 19.3 µM (inactive) | GI50 [40]: 18.6 µM (inactive) | GI50 [41]: 18.9 µM (inactive) | GI50 [42]: 17.1 µM (inactive) | GI50 [43]: 20.2 µM (inactive) | GI50 [44]: 17.3 µM (inactive) | GI50 [45]: 15 µM (inactive) | GI50 [46]: 16.4 µM (inactive) | GI50 [47]: 19.9 µM (inactive) | GI50 [49]: 17.3 µM (inactive) | GI50 [50]: 19.8 µM (inactive) | GI50 [51]: 17.3 µM (inactive) | GI50 [56]: 18.1 µM (inactive) | GI50 [52]: 20 µM (inactive)

O=C1C(Cl)N(c2c(Cl)cccc2Cl)C1c1c[nH]c2ccccc12 (stereo not given)
GI50 [1]: > 100 µM (inactive) | GI50 [2]: > 100 µM (inactive) | GI50 [3]: > 100 µM (inactive) | GI50 [5]: > 100 µM (inactive) | GI50 [6]: > 100 µM (inactive) | GI50 [7]: > 100 µM (inactive) | GI50 [8]: > 100 µM (inactive) | GI50 [9]: > 100 µM (inactive) | GI50 [54]: > 100 µM (inactive) | GI50 [12]: > 100 µM (inactive) | GI50 [13]: > 100 µM (inactive) | GI50 [14]: > 100 µM (inactive) | GI50 [15]: > 100 µM (inactive) | GI50 [17]: > 100 µM (inactive) | GI50 [55]: > 100 µM (inactive) | GI50 [18]: > 100 µM (inactive) | GI50 [20]: > 100 µM (inactive) | GI50 [21]: > 100 µM (inactive) | GI50 [22]: > 100 µM (inactive) | GI50 [23]: > 100 µM (inactive) | GI50 [24]: > 100 µM (inactive) | GI50 [25]: > 100 µM (inactive) | GI50 [57]: 36.3 µM (inactive) | GI50 [26]: > 100 µM (inactive) | GI50 [27]: > 100 µM (inactive) | GI50 [28]: > 100 µM (inactive) | GI50 [29]: > 100 µM (inactive) | GI50 [31]: > 100 µM (inactive) | GI50 [33]: > 100 µM (inactive) | GI50 [35]: > 100 µM (inactive) | GI50 [36]: > 100 µM (inactive) | GI50 [37]: > 100 µM (inactive) | GI50 [38]: > 100 µM (inactive) | GI50 [39]: > 100 µM (inactive) | GI50 [40]: > 100 µM (inactive) | GI50 [41]: > 100 µM (inactive) | GI50 [42]: > 100 µM (inactive) | GI50 [43]: > 100 µM (inactive) | GI50 [44]: > 100 µM (inactive) | GI50 [45]: > 100 µM (inactive) | GI50 [46]: > 100 µM (inactive) | GI50 [48]: > 100 µM (inactive) | GI50 [49]: > 100 µM (inactive) | GI50 [51]: > 100 µM (inactive) | GI50 [52]: > 100 µM (inactive) | GI50 [53]: > 100 µM (inactive)

Cc1cc(-c2ccc(/N=N/c3ccc4c(S(=O)(=O)O)cc(S(=O)(=O)O)c(N)c4c3O)c(C)c2)ccc1/N=N/c1ccc2c(S(=O)(=O)O)cc(S(=O)(=O)O)c(N)c2c1O
GI50 [1]: > 100 µM (inactive) | GI50 [5]: > 100 µM (inactive) | GI50 [7]: > 63.4 µM (inactive) | GI50 [8]: > 100 µM (inactive) | GI50 [10]: > 100 µM (inactive) | GI50 [14]: > 100 µM (inactive) | GI50 [15]: > 100 µM (inactive) | GI50 [21]: > 100 µM (inactive) | GI50 [22]: > 100 µM (inactive) | GI50 [57]: > 100 µM (inactive) | GI50 [28]: > 100 µM (inactive) | GI50 [29]: > 100 µM (inactive) | GI50 [30]: > 100 µM (inactive) | GI50 [33]: > 100 µM (inactive) | GI50 [36]: > 100 µM (inactive) | GI50 [37]: > 100 µM (inactive) | GI50 [43]: > 100 µM (inactive) | GI50 [47]: > 100 µM (inactive) | GI50 [48]: > 100 µM (inactive) | GI50 [53]: > 100 µM (inactive)
